Measurements from ChEMBL document CHEMBL1136829, “Adenosine kinase inhibitors: polar 7-substitutent of pyridopyrimidine derivatives improving their locomotor selectivity” (Bioorg Med Chem Lett, 2003).

Key:
Rattus norvegicus = organism: Rattus norvegicus; experiment: Effective dose to reduce pain in carregenin induced thermal hyperalgesia assay in rat was determined; type: functional
Adenosine kinase [1] = biological target: T1, Adenosine kinase (Homo sapiens, UniProt P55263); experiment: Inhibitory concentration against adenosine kinase was determined in cell assay
T1 sequence (P55263 whole entry): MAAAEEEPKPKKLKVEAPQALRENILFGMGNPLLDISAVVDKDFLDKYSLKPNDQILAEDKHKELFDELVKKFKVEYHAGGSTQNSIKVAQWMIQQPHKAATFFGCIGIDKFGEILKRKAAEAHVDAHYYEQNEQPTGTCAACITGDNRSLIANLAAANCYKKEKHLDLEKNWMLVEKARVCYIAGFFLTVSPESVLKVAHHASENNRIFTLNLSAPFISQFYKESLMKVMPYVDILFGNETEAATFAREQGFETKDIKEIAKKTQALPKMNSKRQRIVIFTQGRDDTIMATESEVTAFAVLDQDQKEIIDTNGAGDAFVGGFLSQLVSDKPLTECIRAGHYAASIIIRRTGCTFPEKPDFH

[2] = Effective dose to reduce locomotor side effects in animals was determined; type: functional
Adenosine kinase [3] = biological target: T1, Adenosine kinase; experiment: Inhibitory concentration against adenosine kinase was determined
[4] = Percent inhibition of the locomotor side effects in animals at 30 umol/kg po was determined; type: functional
[5] = Percent inhibition of the locomotor side effects in animals at 100 umol/kg po was determined; type: functional

Nc1ncnc2nc(-c3ccc(N4CCC(COC5CCOCC5)CC4)nn3)cc(-c3cccc(Br)c3)c12
ED50 (Rattus norvegicus): 5 µmol/kg
IC50 (Adenosine kinase [1]): 17.3 nM
ED50 [2]: 5 µmol/kg
IC50 (Adenosine kinase [3]): 2.8 nM

CON=C1CCN(c2ccc(-c3cc(-c4cccc(Br)c4)c4c(N)ncnc4n3)nn2)CC1
ED50 (Rattus norvegicus): 13 µmol/kg
IC50 (Adenosine kinase [1]): 74.4 nM
ED50 [2]: 6 µmol/kg
IC50 (Adenosine kinase [3]): 18.8 nM

Nc1ncnc2nc(-c3ccc(N4CCC5(CC4)COCO5)nc3)cc(-c3cccc(Br)c3)c12
ED50 (Rattus norvegicus): 2 µmol/kg
IC50 (Adenosine kinase [1]): 378 nM
ED50 [2]: 6 µmol/kg
IC50 (Adenosine kinase [3]): 8.3 nM

CCO[C@H]1CN(c2ccc(-c3cc(-c4cccc(Br)c4)c4c(N)ncnc4n3)nn2)C[C@H]1OCC
ED50 (Rattus norvegicus): 3 µmol/kg
IC50 (Adenosine kinase [1]): 40.7 nM
ED50 [2]: 25 µmol/kg
IC50 (Adenosine kinase [3]): 7.2 nM

COCCOC1CCN(c2ccc(-c3cc(-c4cccc(Br)c4)c4c(N)ncnc4n3)nn2)CC1
ED50 (Rattus norvegicus): 3 µmol/kg
IC50 (Adenosine kinase [1]): 81.9 nM
ED50 [2]: 10 µmol/kg
IC50 (Adenosine kinase [3]): 15.1 nM

Nc1ncnc2nc(-c3ccc(N4CCC(=NOC5CCOCC5)CC4)nn3)cc(-c3cccc(Br)c3)c12
ED50 (Rattus norvegicus): 2 µmol/kg
IC50 (Adenosine kinase [1]): 52 nM
ED50 [2]: 7 µmol/kg
IC50 (Adenosine kinase [3]): 7.1 nM

Nc1ncnc2nc(-c3ccc(N4CCC(O)(C5CCOC5=O)CC4)nc3)cc(-c3cccc(Br)c3)c12 (stereo unspecified)
ED50 (Rattus norvegicus): 4 µmol/kg
inhibition in vivo at 30 µmol/kg [4]: 97%
IC50 (Adenosine kinase [1]): 50.2 nM
inhibition in vivo at 100 µmol/kg [5]: 87%
IC50 (Adenosine kinase [3]): 8.1 nM

Nc1ncnc2nc(-c3ccc(N4CC5CC4CO5)nc3)cc(-c3cccc(Br)c3)c12 (stereo unspecified)
ED50 (Rattus norvegicus): 2 µmol/kg
IC50 (Adenosine kinase [1]): 19.5 nM
ED50 [2]: 8 µmol/kg
IC50 (Adenosine kinase [3]): 7.5 nM

Nc1ncnc2nc(-c3ccc(N4C[C@@H](O)[C@@H](O)C4)nc3)cc(-c3cccc(Br)c3)c12
ED50 (Rattus norvegicus): 2 µmol/kg
inhibition in vivo at 30 µmol/kg [4]: 73%
IC50 (Adenosine kinase [1]): 130 nM
IC50 (Adenosine kinase [3]): 6.5 nM

CCOC1CCN(c2ccc(-c3cc(-c4cccc(Br)c4)c4c(N)ncnc4n3)nn2)CC1
ED50 (Rattus norvegicus): 7 µmol/kg
IC50 (Adenosine kinase [1]): 51.7 nM
ED50 [2]: 20 µmol/kg
IC50 (Adenosine kinase [3]): 10.4 nM

Nc1ncnc2nc(-c3ccc(N4CCC(CCOC5CCOCC5)CC4)nn3)cc(-c3cccc(Br)c3)c12
ED50 (Rattus norvegicus): 30 µmol/kg
IC50 (Adenosine kinase [1]): 89.5 nM
ED50 [2]: 9 µmol/kg
IC50 (Adenosine kinase [3]): 22.8 nM

N#C[C@H]1CN(c2ccc(-c3cc(-c4cccc(Br)c4)c4c(N)ncnc4n3)cn2)C[C@H]1O
ED50 (Rattus norvegicus): 4 µmol/kg
inhibition in vivo at 30 µmol/kg [4]: 91%
IC50 (Adenosine kinase [1]): 496 nM
IC50 (Adenosine kinase [3]): 7.5 nM

Nc1ncnc2nc(-c3ccc(N4CCC[C@H]4CO)nn3)cc(-c3cccc(Br)c3)c12
ED50 (Rattus norvegicus): 10 µmol/kg
inhibition in vivo at 30 µmol/kg [4]: 98%
IC50 (Adenosine kinase [1]): 154 nM
inhibition in vivo at 100 µmol/kg [5]: 75%
IC50 (Adenosine kinase [3]): 16.2 nM

C/C(=N/OC1CCOCC1)C1(O)CCN(c2ccc(-c3cc(-c4cccc(Br)c4)c4c(N)ncnc4n3)cn2)CC1
ED50 (Rattus norvegicus): 5 µmol/kg
IC50 (Adenosine kinase [1]): 43.7 nM
ED50 [2]: 30 µmol/kg
IC50 (Adenosine kinase [3]): 31.7 nM

Nc1ncnc2nc(-c3ccc(N4CCC(=NOC5CCOCC5)CC4)nc3)cc(-c3cccc(Br)c3)c12
ED50 (Rattus norvegicus): 2 µmol/kg
ED50 [2]: 10 µmol/kg
IC50 (Adenosine kinase [3]): 10 nM
